Test results reported in patent US10344279B2, “Methods for the prevention and the treatment of extracapillary glomerulonephritis” (INSERM (Institut National de la Sante et de la Recherche …, priority 2014, dated 2019).
Entries after “also recorded” stand apart in the source; their conditions may differ.

B1: HB-EGF: heparin-binding epidermal growth factor-like growth factor, EGFR ligand (Preprotech) (protein, UniProt Q99075 63-148, looked up)
Heparin-binding EGF-like …: DLQEADLDLLRVTLSSKPQALATPNKEEHGKRKKKGKGLGKKRDPCLRKYKDFCIHGECKYVKELRAPSCICHPGYHGERCHGLSL

Key:
[1] = tested on: phospho-STAT3 (Tyr705); test: Western blot of phospho-STAT3 in primary culture of podocytes; type: cell-based, mouse; conditions: 16 hours; AG1478 1 μM, anti-mIL-6 antibody 10 μg/mL, HB-EGF 10 ng/mL
Protocol: After 4 days of primary culture, podocytes were trypsinized then plated into μ-Dish 35 mm high with Culture-Insert (Ibidi). Ibidi's wounding inserts were used for cell migration studies. The coverage of the 500-μm gap was assessed after 12 hours of culture and podocyte migration area was quantified using ImageJ software. The effects of HB-EGF (10 ng/mL, Preprotech) or AG1478 (1 μM, Calbiochem) or anti-mIL-6 monoclonal antibody MP5-20F3 (10 μg/mL, eBiosciences) or Stattic (2 μM, Calbiochem) on differentiated podocytes was applied during 16 hours. After stimulation, podocytes were scrapped in Phosphosafe buffer for protein extraction or in RLT buffer for total RNA extraction.
After extraction from glomeruli or podocytes with lysis buffer, proteins were quantified by BCA protein assay kit (iNtRON Biotechnology). Samples were resolved on 4-12% Bis-Tris Criterion XT gels (Bio-Rad) then transferred to a polyvinylidene difloride membrane. Membranes were incubated with the appropriate primary antibodies: rabbit anti-phospho-EGFR (Tyr1068) (Cell Signaling Technology), rabbit anti-phospho-STAT3 (Tyr705) (Cell Signaling Technology), goat anti-p57 (Santa Cruz Biotechnology). Protein loading was monitored by using the rat anti-tubulin antibody (Abeam). […] Densitometric analysis with ImageJ software was used for quantification.

[2] = tested on: phospho-EGFR (Tyr1068); test: Western blot of phospho-EGFR in kidney cortex of NTS-challenged mice; type: in vivo; conditions: erlotinib 10 mg/kg/day
Protocol: After extraction from glomeruli or podocytes with lysis buffer, proteins were quantified by BCA protein assay kit (iNtRON Biotechnology). […] Membranes were incubated with the appropriate primary antibodies: rabbit anti-phospho-EGFR (Tyr1068) (Cell Signaling Technology), rabbit anti-phospho-STAT3 (Tyr705) (Cell Signaling Technology), goat anti-p57 (Santa Cruz Biotechnology). Protein loading was monitored by using the rat anti-tubulin antibody (Abeam). Secondary antibodies were donkey-anti rabbit HRP and donkey-anti rabbit HRP (GE Healthcare Life Sciences). […] Densitometric analysis with ImageJ software was used for quantification.

[3] = tested on: phospho-STAT3 (Tyr705); test: Western blot of phospho-STAT3 in glomeruli / kidney cortex of NTS-challenged mice; type: in vivo; conditions: erlotinib 10 mg/kg/day; NTS-challenged mice
Protocol: Podocyte-specific disruption of Stat3 mice were generated by crossing podocin-Cre positive mice (63) with Stat3 floxed mice (64) on C57BL6/J background. Their age-matched littermates with no deletion of Stat3 in any cells are considered as controls. […] Stattic (25 mg/kg) was administered in i.p. way every other day for 10 days. 10 weeks old 129S2/SvPasCr male mice were randomly treated with Stattic and were compared to vehicle-treated (DMSO) littermates.
The glomerulonephritis was induced on male mice (10-12 weeks of age) by intravenous injection of 15 μL of sheep anti-glomerular basement membrane (GBM) nephrotoxic serum (NTS), which was diluted with 85 μL of sterile phosphate buffer solution. Serum injections were repeated twice (on days 2 and 3) at 6 μL/g of body weight and 7 μL/g respectively.
Mouse kidneys were extracted, minced, and digested in 2 mg/mL collagenase I solution (Gibco) in RPMI 1640 (Invitrogen) at 37° C. for 3 minutes, then filtered through a 70-μm cell strainer and one more through a 40-μm cell strainer. […] Podocyte outgrowth area was quantified at day 4 using ImageJ software.
After extraction from glomeruli or podocytes with lysis buffer, proteins were quantified by BCA protein assay kit (iNtRON Biotechnology). […] Protein loading was monitored by using the rat anti-tubulin antibody (Abeam). […] Densitometric analysis with ImageJ software was used for quantification.

Molecule	STAT3 phosphorylation (Tyr705) in cultured primary podocytes [1]	EGFR phosphorylation in the kidney cortex [2]	STAT3 phosphorylation in podocytes [3]
COc1cc2ncnc(Nc3cccc(Cl)c3)c2cc1OC [AG1478]	blunted; also recorded: decreased		
C#Cc1cccc(Nc2ncnc3cc(OCCOC)c(OCCOC)cc23)c1 [erlotinib]		efficiently blocked	blunted
B1	enhanced		
